Structures can show the parent of a compound that is named as a salt.
Columns and labels:
Assay type in all cases: cell-based
[1] = target: T1, human serotonin transporter (Homo sapiens, UniProt P31645); test: Inhibitory action on human serotonin transporter ([3H]-5-hydroxytryptamine uptake in CHO cells); settings: CHO, compound 1 μM; relative to inhibitory activity of 10 μM Paroxetine as 100%; read-out: inhibitory rate (%)
T1 construct: expressed in transfected cells
Method in brief: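 CHO-K1 cells stably expressing human SERT, plated overnight, took up [3H]-5-HT (diluted to 200 nM before a 1:10 addition) for 20 min in HEPES-buffered saline with glucose and 0.5% BSA; radioactivity counted by scintillation. Compounds at 10 μM or 1 μM, activity expressed relative to 10 μM paroxetine set as 100%.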

[2] = target: T2, human norepinephrine transporter (Homo sapiens, UniProt P23975); test: Inhibitory action on human norepinephrine transporter ([3H]-norepinephrine uptake in CHO cells); settings: CHO, compound 1 μM; relative to inhibitory activity of 10 μM DMI as 100%; read-out: inhibitory rate (%)
T2 construct: expressed in transfected cells
T2 sequence (P23975 whole entry): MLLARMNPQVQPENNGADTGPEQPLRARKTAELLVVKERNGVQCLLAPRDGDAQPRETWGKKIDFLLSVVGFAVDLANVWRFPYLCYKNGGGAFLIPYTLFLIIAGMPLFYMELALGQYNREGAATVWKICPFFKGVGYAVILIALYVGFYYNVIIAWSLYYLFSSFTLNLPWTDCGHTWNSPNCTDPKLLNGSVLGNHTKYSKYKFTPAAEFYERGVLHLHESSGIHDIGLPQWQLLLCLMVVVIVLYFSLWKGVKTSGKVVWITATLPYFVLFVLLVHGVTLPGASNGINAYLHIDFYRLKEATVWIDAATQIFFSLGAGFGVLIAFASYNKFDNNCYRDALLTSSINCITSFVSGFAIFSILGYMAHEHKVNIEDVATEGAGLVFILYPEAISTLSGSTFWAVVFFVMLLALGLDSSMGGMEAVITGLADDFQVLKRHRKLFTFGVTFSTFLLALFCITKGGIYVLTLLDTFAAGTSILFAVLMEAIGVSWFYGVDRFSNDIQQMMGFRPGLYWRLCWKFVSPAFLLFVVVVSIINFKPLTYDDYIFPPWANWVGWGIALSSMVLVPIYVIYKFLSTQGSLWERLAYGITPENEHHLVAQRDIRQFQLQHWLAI
Method in brief: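 Stably transfected CHO-K1 cells plated overnight, then given test compound and [3H]-norepinephrine (20 nM final, from 200 nM) in HEPES-buffered saline with 0.5% BSA for 45 min. After PBS washes, retained radioactivity counted by scintillation. Inhibition at 10 μM or 1 μM compound expressed relative to 10 μM DMI as 100%.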

[3] = target: T3, human dopamine transporter (Homo sapiens, UniProt Q01959); test: Inhibitory action on human dopamine transporter ([3H]-dopamine uptake in CHO cells); settings: CHO, compound 1 μM; relative to inhibitory activity of 100 μM Nomifensine as 100%; read-out: inhibitory rate (%)
T3 construct: expressed in transfected cells
T3 sequence (Q01959 whole entry): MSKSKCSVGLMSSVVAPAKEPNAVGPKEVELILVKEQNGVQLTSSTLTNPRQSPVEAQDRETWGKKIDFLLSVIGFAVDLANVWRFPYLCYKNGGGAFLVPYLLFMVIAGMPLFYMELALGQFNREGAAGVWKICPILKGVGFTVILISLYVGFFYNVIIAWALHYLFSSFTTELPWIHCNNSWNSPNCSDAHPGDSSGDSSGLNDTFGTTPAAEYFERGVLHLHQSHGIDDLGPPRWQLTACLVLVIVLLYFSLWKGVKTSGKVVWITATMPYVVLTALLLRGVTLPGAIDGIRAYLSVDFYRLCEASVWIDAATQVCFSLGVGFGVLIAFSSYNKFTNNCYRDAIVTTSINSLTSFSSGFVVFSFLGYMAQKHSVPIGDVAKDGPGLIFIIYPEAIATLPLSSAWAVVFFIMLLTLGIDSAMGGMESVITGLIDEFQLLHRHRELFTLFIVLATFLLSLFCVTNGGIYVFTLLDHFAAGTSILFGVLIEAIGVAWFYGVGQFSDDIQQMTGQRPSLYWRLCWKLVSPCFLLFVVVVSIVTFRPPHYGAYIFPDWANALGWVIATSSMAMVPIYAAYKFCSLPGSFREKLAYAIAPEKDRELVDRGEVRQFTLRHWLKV
Method in brief: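 CHO-K1 cells stably expressing human dopamine transporter, exposed to compound at 10 μM or 1 μM in HEPES-buffered saline with 0.5% BSA. [3H]-dopamine uptake measured over 60 min by scintillation counting. Activity expressed relative to 100 μM nomifensine as 100%.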

T1 sequence (P31645 whole entry): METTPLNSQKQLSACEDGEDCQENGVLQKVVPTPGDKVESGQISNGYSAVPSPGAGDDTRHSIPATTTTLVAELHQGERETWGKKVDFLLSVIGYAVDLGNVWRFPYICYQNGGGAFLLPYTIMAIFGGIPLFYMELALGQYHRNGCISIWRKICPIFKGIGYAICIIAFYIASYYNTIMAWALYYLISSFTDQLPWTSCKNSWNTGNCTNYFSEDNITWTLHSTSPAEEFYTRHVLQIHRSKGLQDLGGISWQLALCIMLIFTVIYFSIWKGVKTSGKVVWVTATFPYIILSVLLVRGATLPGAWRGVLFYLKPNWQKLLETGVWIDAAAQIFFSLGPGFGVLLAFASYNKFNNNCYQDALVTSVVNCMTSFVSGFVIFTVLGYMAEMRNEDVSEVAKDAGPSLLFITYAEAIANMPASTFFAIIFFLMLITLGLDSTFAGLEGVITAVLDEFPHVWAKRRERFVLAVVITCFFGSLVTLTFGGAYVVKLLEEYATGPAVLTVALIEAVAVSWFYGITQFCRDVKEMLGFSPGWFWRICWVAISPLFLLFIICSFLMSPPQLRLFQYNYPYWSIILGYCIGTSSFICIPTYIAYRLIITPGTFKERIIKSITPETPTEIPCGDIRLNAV

Structure (SMILES) | inhibition at 1 µM [1] | inhibition at 1 µM [2] | inhibition at 1 µM [3]
CS(=O)(=O)NC[C@H]1OCCNC[C@H]1c1ccc(Cl)c(Cl)c1 [Example 467, N-{[(6R,7S)-6-(3,4-dichlorophenyl)-1,4-oxazepan-7-yl]methyl}methanesulfonamide monohydrochloride] | 38% | 102% | 60%
O=S(=O)(NC[C@H]1OCCNC[C@H]1c1ccc(Cl)c(Cl)c1)C(F)F [Example 470, N-{[(6R,7S)-6-(3,4-dichloropheny))-1,4-oxazepan-7-yl]methyl}-1,1-difluoromethanesulfonamide monohydrochloride] | 66% | 103% | 91%
O=c1cccnn1C[C@H]1OCCNC[C@H]1c1ccc(Cl)c(Cl)c1 [Example 481, 2-{[(6R,7S)-6-(3,4-dichlorophenyl)-1,4-oxazepan-7-yl]methyl}pyridazin-3(2H)-one monohydrochloride] | 76% | 100% | 61%
OCC(O)(CO)[C@@H]1OCCNC[C@H]1c1ccc(Cl)c(Cl)c1 [Example 491, 2-[(6R,7R)-6-(3,4-dichlorophenyl)-1,4-oxazepan-7-yl]propane-1,2,3-triol monohydrochloride] | 77% | 100% | 77%
O=c1cccnn1C[C@@H]1OCCNC[C@H]1c1ccc(Cl)c(Cl)c1 [Example 515, 2-{[(6R,7R)-6-(3,4-dichlorophenyl)-1,4-oxazepan-7-yl]methyl}pyridazin-3(2H)-one monohydrochloride] | 82% | 104% | 53%
O=c1[nH]c(-c2cccnc2OC2CNCCOC2c2ccc(Cl)c(Cl)c2)no1 (stereo not drawn) [Example 525, 3-(2-{[(6R*,7S*)-7-(3,4-dichlorophenyl)-1,4-oxazepan-yl]oxy}pyridin-3-yl)-1,2,4-oxadiazol-5(4H)-one monohydrochloride (retention time long)] | 97% | 104% | 98%
O=C1NCCCN1C[C@H]1OCCNC[C@H]1c1ccc(Cl)c(Cl)c1 [Example 545, 1-{[(6R,7S)-6-(3,4-dichlorophenyl)-1,4-oxazepan-7-yl]methyl}tetrahydropyrimidin-2(1H)-one monohydrochloride] | 94% | 108% | 81%
O=c1[nH]nc(-c2cccn(C[C@@H]3CNCCO[C@H]3c3ccc(Cl)c(F)c3)c2=O)o1 [Example 550, 1-{[(6S,7R)-7-(4-chloro-3-fluorophenyl)-1,4-oxazepan-6-yl]methyl}-3-(5-oxo-4,5-dihydro-1,3,4-oxadiazol-2-yl)pyridin-2(1H)-one monohydrochloride] | 97% | 109% | 46%
O[C@@H]1CNCCO[C@H]1c1ccc(Cl)c(F)c1 [Example 552, (6R,7S)-7-(4-chloro-3-fluorophenyl)-1,4-oxazepan-6-ol monohydrochloride] | 14% | 107% | 1%
O=c1[nH]nc(-c2cccnc2O[C@@H]2CNCCO[C@H]2c2ccc(Cl)c(F)c2)[nH]1 [Example 558, 5-(2-{[(6R,7S)-7-(4-chloro-3-fluorophenyl)-1,4-oxazepan-6-yl]oxy}pyridin-3-yl)-2,4-dihydro-3H-1,2,4-triazol-3-one monohydrochloride] | 81% | 106% | 100%
Cc1nnc(-c2cccnc2O[C@@H]2CNCCO[C@H]2c2ccc(Cl)c(F)c2)[nH]1 [Example 568, (6R,7S)-7-(4-chloro-3-fluorophenyl)-6-{[3-(5-methyl-4H-1,2,4-triazol-3-yl)pyridin-2-yl]oxy}-1,4-oxazepane monohydrochloride] | 94% | 103% | 100%
CS(=O)(=O)CC1(O)CNCCOC1c1ccc(Cl)c(F)c1 (stereo not drawn) [Example 572, 7-(4-chloro-3-fluoro-phenyl)-6-[(methyl-sulfonyl)-methyl]-1,4-oxazepan-ol] | 95% | 103% | 62%
O=C(O)c1ccnn(C[C@@H]2CNCCO[C@H]2c2ccc(Cl)c(F)c2)c1=O [Example 597, 2-{[(6S, 7R)-7-(4-chloro-3-fluoro-phenyl)-1,4-oxazepan-6-yl]methyl}-3-oxo-2,3-dihydro-pyridazine-4-carboxylic acid] | 78% | 104% | 38%

Second part, the compound after the results:

inhibition at 1 µM [1] | inhibition at 1 µM [2] | inhibition at 1 µM [3] | Structure (SMILES)
15% | 70% | 14% | OC[C@H]1OCCNC[C@@H]1c1ccc(Cl)c(Cl)c1 [Example 487, [(6S,7S)-6-(3,4-dichlorophenyl)-1,4-oxazepan-7-yl]methanol monohydrochloride]
61% | 102% | 37% | OC[C@@H]1OCCNC[C@H]1c1ccc(Cl)c(Cl)c1 [Example 488, [(6R,7R)-6-(3,4-dichlorophenyl)-1,4-oxazepan-7-yl]methanol monohydrochloride]
62% | 105% | 57% | OCCOC[C@@H]1OCCNC[C@H]1c1ccc(Cl)c(Cl)c1 [Example 496, 2-{[(6R,7R)-6-(3,4-dichlorophenyl)-1,4-oxazepan-7-yl]methoxy}ethanol monohydrochloride]
46% | 104% | 25% | O=C(CO)NC[C@@H]1OCCNC[C@H]1c1ccc(Cl)c(Cl)c1 [Example 507, N-{[(6R,7R)-6-(3,4-dichlorophenyl)-1,4-oxazepan-7-yl]methyl}-2-hydroxyacetamide monohydrochloride]
28% | 99% | 68% | OC[C@H](O)[C@H]1OCCNC[C@H]1c1ccc(Cl)c(Cl)c1 [Example 578, (1S)-1-[(6R, 7S)-6-(3,4-dichloro-phenyl)-1,4-oxazepan-7-yl]ethane-1,2-diol]
61% | 96% | 49% | OC[C@@H](O)[C@H]1OCCNC[C@H]1c1ccc(Cl)c(Cl)c1 [Example 579, (1R)-1-[(6R, 7S)-6-(3,4-dichloro-phenyl)-1,4-oxazepan-7-yl]ethane-1,2-diol]

From US20130267494A1, “1,4-OXAZEPANE DERIVATIVES” (priority 2010, published 2013)
